Paper PMC2759517 (PLoS ONE, 2009)
pIC50: −log10 of the molar value. Where no end group is shown, it is not given here.

How the values were obtained:
HA-tagged PA of FluB = molecular target: T1, HA-tagged PA of FluB (Influenza B virus, UniProt Q9QLI9); assay: biochemical; assay type: binding
T1 construct: upstream of the initiation codon and antisense primers with a deleted stop codon; made in house; host or cells: human 293T cells, transiently transfected; unpurified cell lysate

HA-tagged PA of FluA = HA-tagged PA of FluA (Influenza A virus, UniProt Q2VC91); assay: biochemical; assay type: binding

T1 sequence (Q9QLI9 whole entry): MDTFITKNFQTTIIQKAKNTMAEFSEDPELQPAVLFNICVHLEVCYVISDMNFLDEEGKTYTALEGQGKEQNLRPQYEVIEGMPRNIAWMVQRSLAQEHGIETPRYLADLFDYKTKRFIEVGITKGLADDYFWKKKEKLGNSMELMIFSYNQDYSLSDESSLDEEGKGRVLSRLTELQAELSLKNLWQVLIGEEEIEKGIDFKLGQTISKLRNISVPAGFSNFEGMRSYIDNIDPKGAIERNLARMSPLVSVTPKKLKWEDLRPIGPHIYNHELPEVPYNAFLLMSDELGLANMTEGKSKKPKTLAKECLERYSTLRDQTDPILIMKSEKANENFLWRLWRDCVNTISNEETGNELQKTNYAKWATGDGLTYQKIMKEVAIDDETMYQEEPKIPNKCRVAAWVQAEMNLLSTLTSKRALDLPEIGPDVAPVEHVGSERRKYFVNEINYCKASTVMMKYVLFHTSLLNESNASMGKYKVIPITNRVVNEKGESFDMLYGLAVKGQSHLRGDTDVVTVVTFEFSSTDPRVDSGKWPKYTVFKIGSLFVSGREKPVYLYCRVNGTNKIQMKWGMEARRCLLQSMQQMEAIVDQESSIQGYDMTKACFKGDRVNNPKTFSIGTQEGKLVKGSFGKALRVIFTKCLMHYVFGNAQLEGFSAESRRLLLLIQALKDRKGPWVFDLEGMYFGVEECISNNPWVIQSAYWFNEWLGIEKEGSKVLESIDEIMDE

Molecule | pIC50 (HA-tagged PA of FluB) | pIC50 (HA-tagged PA of FluA)
MNINPYFLFIDVPIQ-NH2 [PB11-15 B] | 7.35 | 
CSCC[C@H](N)C(=O)N[C@@H](CC(=O)O)C(=O)N[C@H](C(=O)N[C@@H](CC(N)=O)C(=O)N1CCC[C@H]1C(=O)N[C@H](C(=O)N[C@@H](CC(C)C)C(=O)N[C@@H](CC(C)C)C(=O)N[C@@H](Cc1ccccc1)C(=O)N[C@@H](CC(C)C)C(=O)N[C@@H](CCCCN)C(=O)N[C@H](C(=O)N1CCC[C@H]1C(=O)N[C@@H](C)C(=O)N[C@@H](CCC(N)=O)C(N)=O)C(C)C)[C@@H](C)O)C(C)C [PB11-15 A] | < 5.52 | 
MDVNPTLLFLK-NH2 [1–11] |  | 6.05
